Here are results for 34 compounds from the Kinase Knowledgebase extract (Sharma et al. 2016).

Experiment [1] deals with PIK3CA (human) (UniProt P42336). In words: Inhibition of A2780 Cell Proliferation.
Experiment [2] has the same target. The experiment is described as follows: Inhibition of PIK3CA Kinase Activity.

Chain of PIK3CA (human) (P42336 whole entry, looked up): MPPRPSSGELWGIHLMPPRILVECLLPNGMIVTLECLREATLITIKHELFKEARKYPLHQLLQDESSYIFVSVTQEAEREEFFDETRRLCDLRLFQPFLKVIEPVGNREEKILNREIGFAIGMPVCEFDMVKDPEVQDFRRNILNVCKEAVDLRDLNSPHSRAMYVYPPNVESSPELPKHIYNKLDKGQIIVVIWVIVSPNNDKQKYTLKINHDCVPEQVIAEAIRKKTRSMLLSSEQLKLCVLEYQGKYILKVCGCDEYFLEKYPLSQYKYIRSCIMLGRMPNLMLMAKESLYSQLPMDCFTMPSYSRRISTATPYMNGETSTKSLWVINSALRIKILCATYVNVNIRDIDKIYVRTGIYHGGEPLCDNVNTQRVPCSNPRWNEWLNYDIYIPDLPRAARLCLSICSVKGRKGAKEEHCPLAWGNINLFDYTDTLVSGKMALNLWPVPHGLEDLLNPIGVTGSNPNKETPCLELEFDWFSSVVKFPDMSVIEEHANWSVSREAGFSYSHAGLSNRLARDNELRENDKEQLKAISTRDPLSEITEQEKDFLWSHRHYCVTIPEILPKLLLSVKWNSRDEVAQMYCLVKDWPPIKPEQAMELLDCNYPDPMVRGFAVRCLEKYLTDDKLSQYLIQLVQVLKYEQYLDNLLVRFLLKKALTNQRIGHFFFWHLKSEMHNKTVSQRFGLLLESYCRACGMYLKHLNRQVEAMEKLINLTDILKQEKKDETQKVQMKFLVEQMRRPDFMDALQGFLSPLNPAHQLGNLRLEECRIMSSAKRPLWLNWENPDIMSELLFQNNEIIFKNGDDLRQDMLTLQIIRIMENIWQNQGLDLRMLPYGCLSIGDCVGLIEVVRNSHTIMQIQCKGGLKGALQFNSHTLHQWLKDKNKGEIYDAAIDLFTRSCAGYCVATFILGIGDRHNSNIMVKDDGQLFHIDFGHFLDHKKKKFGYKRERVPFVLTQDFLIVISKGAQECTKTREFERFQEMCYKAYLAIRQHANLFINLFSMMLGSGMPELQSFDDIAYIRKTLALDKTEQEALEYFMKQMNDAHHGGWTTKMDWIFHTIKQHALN

In the case of `Nc1ncc(-c2ccc3nc(NC(=O)N4CCC[C@H]4CO)cn3c2)cc1C(F)(F)F`, the EC50 (usually the concentration needed to bring the measured effect to its halfway point) at PIK3CA (human) [1] is less than 10 µM. Besides, the concentration for half-maximal inhibition (IC50) (commonly the concentration needed to halve the response being measured) on PIK3CA (human) [2] was less than 1 µM.
The corresponding values for `CC(=O)Nc1cn2cc(-c3cnc(N)c(-c4ccc(F)cc4)c3)ccc2n1` are less than 25 µM and less than 1 µM.
With `CC(=O)Nc1cn2nc(-c3cnc(N)c(-c4ccccc4F)c3)ccc2n1`, at PIK3CA (human) [1], the concentration for a half-maximal effect (EC50) is less than 1 µM. On PIK3CA (human) [2], this compound gave a half-inhibitory concentration (IC50) of less than 1 µM.
On PIK3CA (human) [1], `COCCOc1nc(-c2ccc3nc(NC(=O)COC)cn3c2)cnc1N` gave a concentration for a half-maximal effect (EC50) of less than 10 µM. The IC50 at PIK3CA (human) [2] is less than 1 µM.
Take `CCOCC(=O)Nc1cn2nc(-c3cnc(N)c(C(F)(F)F)c3)ccc2n1`: the concentration giving a half-maximal response (EC50) at PIK3CA (human) [1] was less than 10 µM. This compound returned an IC50 against PIK3CA (human) [2] of less than 1 µM.
On PIK3CA (human) [1], `Nc1ncc(-c2ccc3nc(NC(=O)CCCN4CCOCC4)cn3n2)cc1C(F)(F)F` showed an EC50 of less than 1 µM. At PIK3CA (human) [2], this compound registered a 50% inhibitory concentration (IC50) of less than 1 µM.
On to `CNCC(=O)Nc1cn2cc(-c3cnc(N)c(C(F)(F)F)c3)ccc2n1`, for which the 50% effective concentration (EC50) on PIK3CA (human) [1] was less than 1 µM. On PIK3CA (human) [2], this compound returned a half-maximal inhibitory concentration (IC50) of less than 1 µM.
For the compound `CC(=O)Nc1cn2nc(-c3cnc(N)c(C(=O)NCCN4CCCC4)c3)ccc2n1`, at PIK3CA (human) [1], the concentration for a half-maximal effect (EC50) was less than 10 µM. The compound also registered a half-inhibitory concentration (IC50) on PIK3CA (human) [2] of less than 1 µM.
As for `CC(=O)Nc1cn2cc(-c3cnc(N)c(C(=O)N4CCNCC4)c3)ccc2n1`, the EC50 at PIK3CA (human) [1] was less than 25 µM. The half-inhibitory concentration (IC50) against PIK3CA (human) [2] is less than 1 µM.
The compound `CC(=O)Nc1cn2nc(-c3cnc(N)c(-c4ccccc4)c3)ccc2n1` came in with a concentration giving a half-maximal response (EC50) on PIK3CA (human) [1] of less than 1 µM. On PIK3CA (human) [2], this compound registered a half-inhibitory concentration (IC50) of less than 1 µM.
The compound `NC(=O)[C@@H]1CCCN1C(=O)Nc1nc2ccc(-c3cnc(N)c(C(F)(F)F)c3)cc2s1` displayed a 50% effective concentration (EC50) on PIK3CA (human) [1] of less than 10 µM. This compound also displayed a half-inhibitory concentration (IC50) against PIK3CA (human) [2] of less than 1 µM.
For `C/C=C\c1c(NC(C)=O)nc2ccc(-c3cnc(N)c(C(F)(F)F)c3)cn12`, on PIK3CA (human) [1], the EC50 was less than 25 µM. This compound also gave a concentration for half-maximal inhibition (IC50) at PIK3CA (human) [2] of less than 1 µM.
Turning to `Nc1ncc(-c2ccc3nc(NC(=O)c4ccccn4)cn3c2)cc1C(F)(F)F`, the concentration for a half-maximal effect (EC50) at PIK3CA (human) [1] was less than 25 µM. Besides, the 50% inhibitory concentration (IC50) against PIK3CA (human) [2] is less than 1 µM.
Compound `CN(C)C1CCN(C(=O)Nc2cn3cc(-c4cnc(N)c(C(F)(F)F)c4)ccc3n2)C1` (stereo not drawn) yielded an EC50 on PIK3CA (human) [1] of less than 10 µM. This compound gave a concentration for half-maximal inhibition (IC50) at PIK3CA (human) [2] of less than 1 µM.
Take `CC(=O)Nc1cn2cc(-c3cnc(N)cn3)ccc2n1`: at PIK3CA (human) [1], the 50% effective concentration (EC50) is less than 25 µM. In addition, at PIK3CA (human) [2], the IC50 is less than 1 µM.
`CC(=O)Nc1nc2ccc(-c3cnc(N)c(C(F)(F)F)c3)cn2c1C#Cc1ccccc1` yielded a 50% effective concentration (EC50) on PIK3CA (human) [1] of less than 10 µM. In addition, the IC50 against PIK3CA (human) [2] is less than 1 µM.
Turning to `CCN(CC)Cc1cc(-c2ccc3nc(NC(C)=O)cn3n2)cnc1N`, the EC50 at PIK3CA (human) [1] is less than 10 µM. Besides, at PIK3CA (human) [2], the half-maximal inhibitory concentration (IC50) is less than 1 µM.
As for `Nc1ncc(-c2ccc3nc(NC(=O)[C@@H]4CCCN4)cn3c2)cc1C(F)(F)F`, at PIK3CA (human) [1], the concentration giving a half-maximal response (EC50) was less than 10 µM. The same compound returned an IC50 at PIK3CA (human) [2] of less than 25 µM.
`CC(=O)Nc1cn2cc(-c3cnc(N)c(Br)n3)ccc2n1` came in with a concentration for a half-maximal effect (EC50) at PIK3CA (human) [1] of less than 25 µM. At PIK3CA (human) [2], the IC50 is less than 1 µM.
Compound `CC(C)(C)OC(=O)N1CCC1C(=O)Nc1cn2cc(-c3cnc(N)c(OCC(F)(F)F)n3)ccc2n1` (stereo not drawn) returned an EC50 at PIK3CA (human) [1] of less than 25 µM. For the same compound, on PIK3CA (human) [2], the IC50 was less than 1 µM.
As for `Nc1ncc(-c2ccc3nc(NC(=O)C4CCN4)cn3n2)cc1C(F)(F)F` (stereo not drawn), the half-maximal effective concentration (EC50) on PIK3CA (human) [1] is less than 10 µM. Also, the IC50 at PIK3CA (human) [2] is less than 1 µM.
In the case of `Nc1ncc(-c2ccc3nc(NC(=O)[C@H]4CCCN4)cn3n2)cc1C(F)(F)F`, the EC50 on PIK3CA (human) [1] was less than 25 µM. On PIK3CA (human) [2], this compound had an IC50 of less than 1 µM.
On PIK3CA (human) [1], `COCCOc1nc(-c2ccc3nc(NC(C)=O)sc3c2)cnc1N` returned an EC50 of less than 10 µM. Besides, the IC50 at PIK3CA (human) [2] is less than 1 µM.
Turning to `CC(=O)Nc1cn2cc(-c3cnc(N)c(Oc4ccccc4)n3)ccc2n1`, at PIK3CA (human) [1], the concentration giving a half-maximal response (EC50) is less than 1 µM. For the same compound, the half-inhibitory concentration (IC50) at PIK3CA (human) [2] was less than 1 µM.
On PIK3CA (human) [1], `CC(=O)Nc1nc2ccc(-c3cnc(N)c(C(F)(F)F)c3)cn2c1C#Cc1ccncc1` registered a half-maximal effective concentration (EC50) of less than 1 µM. Further, the IC50 at PIK3CA (human) [2] was less than 1 µM.
With `CC(=O)Nc1cn2nc(-c3cnc(N)c(-c4ccccc4OC(F)(F)F)c3)ccc2n1`, the EC50 at PIK3CA (human) [1] is less than 1 µM. On PIK3CA (human) [2], this compound came in with an IC50 of less than 1 µM.
As to `Nc1ncc(-c2ccc3nc(NC(=O)c4ccncc4)cn3c2)cc1C(F)(F)F`, the half-maximal effective concentration (EC50) at PIK3CA (human) [1] is less than 25 µM. Also, on PIK3CA (human) [2], the half-inhibitory concentration (IC50) is less than 1 µM.
At PIK3CA (human) [1], `CC(=O)Nc1cn2c(C)c(-c3cnc(N)c(C(F)(F)F)c3)ccc2n1` showed a concentration for a half-maximal effect (EC50) of less than 10 µM. For the same compound, on PIK3CA (human) [2], the IC50 was less than 1 µM.
The compound `NCC(=O)Nc1cn2cc(-c3cnc(N)c(C(F)(F)F)c3)ccc2n1` registered an EC50 on PIK3CA (human) [1] of less than 10 µM. The IC50 against PIK3CA (human) [2] is less than 1 µM.
Consider `CC(=O)Nc1cn2cc(-c3cnc(N)c(-c4ccccc4N4CCOCC4)c3)ccc2n1`, for which the EC50 at PIK3CA (human) [1] is less than 1 µM. Besides, the half-maximal inhibitory concentration (IC50) on PIK3CA (human) [2] is less than 1 µM.
`Nc1ncc(-c2ccc3nc(NC(=O)CCC4CCCCN4)cn3n2)cc1C(F)(F)F` (stereo not drawn): the half-maximal effective concentration (EC50) at PIK3CA (human) [1] was less than 1 µM. On PIK3CA (human) [2], the concentration for half-maximal inhibition (IC50) was less than 1 µM.
For the compound `COc1cccc(-c2cc(-c3ccc4nc(NC(C)=O)cn4n3)cnc2N)n1`, the EC50 on PIK3CA (human) [1] was less than 10 µM. In addition, the concentration for half-maximal inhibition (IC50) against PIK3CA (human) [2] is less than 1 µM.
Compound `CC(=O)Nc1cn2nc(-c3cnc(N)c(-c4ccc(C(F)(F)F)cc4)c3)ccc2n1` returned a half-maximal effective concentration (EC50) at PIK3CA (human) [1] of less than 1 µM. On PIK3CA (human) [2], this compound returned a 50% inhibitory concentration (IC50) of less than 1 µM.
On to `COc1ccccc1-c1cc(-c2ccc3nc(NC(C)=O)cn3n2)cnc1N`, for which, at PIK3CA (human) [1], the 50% effective concentration (EC50) was less than 10 µM. This compound displayed an IC50 on PIK3CA (human) [2] of less than 1 µM.
